From patent US9617264B2, “2,7-diazaspiro[3.5]nonane compounds” (REMYND NV, priority 2014, dated 2017)

Legend:
INS-1E cells = experiment: Cytokine-induced apoptosis (caspase-3/7 activation, Caspase-Glo 3/7) in INS-1E rat insulinoma cells; format: cell-based; details: cytokine mix (IFN-γ, IL-1, TNF-α), 24 hours, caspase 3/7 activity, read-out: CYT EC50
Source text: The INS-1E cell line, a rat insulinoma cell line, has been characterized extensively. INS-1E cells respond to glucose by secreting insulin and, unlike most other immortalized n-cell lines, they do this in a consistent manner over time. The cells are sensitive to hyperglycemia-, free fatty acid (FFA)-, and cytokine-induced stress. Prolonged stress ultimately leads to induction of apoptotic pathways and, if stress is not counter-acted, to apoptosis. Caspase-3 and -7 play a central role downstream where various apoptotic pathways merge. As such, activation (i.e. cleavage) of these caspases forms a relevant primary read-out to evaluate protective activity of compounds against stress-induced apoptosis.
To evaluate the efficacy of different compounds to prevent induction of apoptosis, an in vitro screen was developed in which INS-1E cells were exposed to a cytokine mix (IFN-γ, 5 ng/ml; IL-1, 20 pg/ml; TNF-α, 0.25 ng/ml). The degree of induction of apoptosis was evaluated using a substrate for cleaved caspase-3 and -7, i.e. a proluminescent caspase-3/7 DEVD aminoluciferin substrate with a thermostable luciferase (Caspase-Glo® 3/7 assay; Promega, cat. G8092).
On day 0, INS-1E cells were plated in a white-walled 96-well microplate (Greiner, cat. 655098) at 20,000 cells per well in 100 μl complete medium (RPMI containing 11 mM glucose supplemented with 5% FCS, 100 IU/ml penicillin, 100 μg/ml streptomycin, 10 mM HEPES, 1 mM Sodium Pyruvate and 50 μM 2-Mercapto-ethanol). On day 2, 100 μl medium containing cytokines and compound dissolved in DMSO was added to the cells. Wells without cytokines containing DMSO and wells with cytokines and DMSO were included to evaluate the degree of caspase 3/7 activation by the cytokine mix. After 24 hours exposure to cytokines and/or compound, Caspase-Glo® 3/7 reagent was added to the cells and caspase activity was determined by measuring luminescence.
To evaluate compound efficacy, the “toxicity window” was calculated by subtracting caspase activity of wells without stressor from activity of wells with stressor but without compound. The amount of caspase activity in the latter wells was normalized to 1 and used as reference. Subsequently, caspase activity in the wells with stressor and varying concentrations of compound was calculated relative to the wells without compound. Plotting caspase activity vs the log 10 of the concentration of compound permitted calculation of the EC50 values for the compounds which typically lied between 0.0001 and 10 μM. Compounds with an EC50<10 μM were considered active.

M17_3SYN cells = experiment: Paraquat-induced cytotoxicity (LDH) in α-synuclein over-expressing M17_3SYN neuroblastoma cells; format: cell-based; details: Homo sapiens, Neuroblastoma cell, 48 h, 6 mM Paraquat, 2 days, LDH toxicity inhibition, read-out: SYN EC50
Method in brief: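 Human BE-M17 neuroblastoma cells stably overexpressing wild-type human α-synuclein were challenged with 6 mM paraquat (final) for 2 days at 37° C in the presence of graded compound concentrations. Cytotoxicity was measured as released LDH relative to total LDH, and EC50 was derived from dose-inhibition curves.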

db/db mice = experiment: In vivo evaluation in db/db mice (type 2 diabetes model)
Source text: For in vivo evaluation of compound efficacy, male BKS.Cg-+Leprdb/Leprdb/OlaHsd mice (db/db mice—Harlan) were used. The db/db phenotype results from a mutation in the leptin receptor gene, leading to a splice variant (Chen, Charlat et al. 1996; Lee, Proenca et al. 1996). The development of type 2 diabetes in db/db mice is associated with reduced insulin levels due to progressive β-cell failure following an initial period of hypersecretion of insulin. Since these mice develop type 2 diabetes in a manner related to pathology development in humans, and the model is accepted as in vivo model for evaluation of novel anti-diabetic treatments by the Food and Drug Administration (FDA, US), it is a highly relevant model for testing candidate drugs for efficacy.
Compounds were administered intraperitoneal (IP) or oral (PO) at a dose of maximally 50 mg/kg. Mice were subjected to metabolic analysis weekly or bi-weekly. These tests included but were not limited to determination of fasting (5 hrs) and non-fasting blood glucose levels, plasma insulin levels, % glycated hemoglobin (HbA1c) levels, glucose tolerance test and insulin sensitivity test.
Treatment with Cmpd045 at 15 mg/kg PO decreased body weight (FIG. 1A).

## COc1ccc(S(=O)(=O)N2CC3(CCN(S(=O)(=O)c4ccc(OC(F)F)cc4)CC3)C2)cc1 [Cmpd045, 7-((4-(Difluoromethoxy)phenyl)sulfonyl)-2-((4-methoxyphenyl)sulfonyl)-2,7-diazaspiro[3.5]nonane]
INS-1E cells
  EC50: 12 nM
M17_3SYN cells
  EC50: 2 nM
db/db mice; 15 mg/kg PO, non-fasted body weight, FIG. 1A
  body weight: decreased
db/db mice; fasted, FIG. 1B
  Fasted blood glucose levels: significantly lower
db/db mice; treated for 4 weeks, FIG. 1C
  % HbA1c levels: reduced
